Here are results for 18 compounds from patent publication US20200069691A1, “HETEROCYCLIC COMPOUNDS AS HIV PROTEASE INHIBITORS” (Merck Sharp & Dohme Corp., priority 2016, published 2020).

The assay concerns the target T1, wild-type HIV-1 protease (Human immunodeficiency virus type 1 group M subtype B, UniProt P04585).
T1 construct: Escherichia coli expressed wild-type HIV-1 protease protein
The assay can be described thus: Assay for Inhibition of Microbial Expressed HIV Protease (peptide substrate cleavage, LC-MS/MS readout). Type of assay: biochemical. The note with it: E. coli expressed wild-type HIV-1 protease, mean of at least two independent experiments, read-out: HIV Pr Enzyme HIV1 PR IC50. On the procedure:
Assay for Inhibition of Microbial Expressed HIV Protease
Inhibition of Escherichia coli expressed wild-type HIV-1 protease protein was carried out with a peptide substrate [Val-Ser-Gln-Asn-(βnaphtyl)Ala-Pro-Ile-Val]. The inhibitor compound was preincubated with HIV-1 protease enzyme in assay buffer (50 mM sodium acetate, pH 5.5, 100 mM NaCl, and 0.1% BSA) for 30 minutes at room temperature. Peptide substrate was added to 400 μM in a total volume of 20 μL containing […] HIV-1 protease (final) after which the reaction was incubated for 1 hour at 30° C. […] The extent of inhibition of the reaction was determined from the peak area of the products.
Data shown in the table reflects the mean of at least two independent experiments.
As for `CC(C)CC1(c2ccccc2)NC(=N)N(Cc2ccc(C(F)(F)F)c(C(=O)N3Cc4cncnc4C3)c2)C1=O` (stereo not drawn) [Compound 150, 3-[3-(5,7-dihydro-6H-pyrrolo[3,4-d]pyrimidin-6-ylcarbonyl)-4-(trifluoromethyl)benzyl]-2-imino-5-(2-methylpropyl)-5-phenylimidazolidin-4-one], the IC50 is 5.49 nM. With `N=C1N[C@](CCCC(F)(F)F)(c2ccc(F)cc2)C(=O)N1Cc1ccc(C(F)(F)F)c(C(=O)N2CCN(c3ccccc3)CC2)c1` [Compound 119, (5R)-5-(4-fluorophenyl)-2-imino-3-{3-[(4-phenylpiperazin-1-yl)carbonyl]-4-(trifluoromethyl)-benzyl}-5-(4,4,4-trifluorobutyl)-imidazolidin-4-one] the figure was 42.1 nM; with `N=C1NC(c2ccccc2)(c2ccccc2)C(=O)N1Cc1cccc(C(=O)N2Cc3cc(Cl)c(Cl)cc3C2)c1` [Compound 271, 3-{3-[(5,6-dichloro-1,3-dihydro-2H-isoindol-2-yl)carbonyl]benzyl}-2-imino-5,5-diphenylimidazolidin-4-one], 27.9 nM; with `N=C1NC(c2ccccc2)(c2ccccc2)C(=O)N1Cc1cc(C(=O)N2Cc3ccccc3C2)ccn1` [Compound 396, 3-{[4-(1,3-dihydro-2H-isoindol-2-ylcarbonyl)pyridin-2-yl]methyl}-2-imino-5,5-diphenylimidazolidin-4-one], 16.7 nM.

Regarding `C=Cc1c(C(F)(F)F)nc2n1CCN(C(=O)c1cccc(CN3C(=N)NC(c4ccccc4)(c4ccccc4)C3=O)c1)C2` [Compound 297, 3-(3-{[3-ethenyl-2-(trifluoromethyl)-5,6-dihydroimidazo [1,2-a]pyrazin-7(8H)-yl]carbonyl}benzyl)-2-imino-5,5-diphenylimidazolidin-4-one], the IC50 worked out at 43.5 nM. Turning to `CC(C)CC(c1ccc(C(F)(F)F)c(C(=O)N2Cc3nccnc3C2)c1)N1C(=N)N[C@](CC2CCOCC2)(c2ccc(F)cc2)C1=O` (stereo partly drawn) [Compound 14, (5R)-3-{1-[3-(5,7-dihydro-6H-pyrrolo[3,4-b]pyrazin-6-ylcarbonyl)-4-(trifluoromethyl)phenyl]-3-methylbutyl}-5-(4-fluorophenyl)-2-imino-5-(tetrahydro-2H-pyran-4-ylmethyl)imidazolidin-4-one], the IC50 amounted to 1.77 nM. With `N=C1N[C@](CCC2CC2)(c2ccc(F)cc2)C(=O)N1[C@@H]1CCOc2ccc(C(=O)N3Cc4nccnc4C3)cc21` [Compound 107, (5R)-5-(2-cyclopropylethyl)-3-[(4R)-6-(5,7-dihydro-6H-pyrrolo-[3,4-b]pyrazin-6-ylcarbonyl)-3,4-dihydro-2H-chromen-4-yl]-5-(4-fluorophenyl)-2-iminoimidazolidin-4-one] the figure was 25.9 nM. Take `CC(C)CCC1(c2ccccc2)NC(=N)N(Cc2cccc(C(=O)N3Cc4nccnc4C3)c2)C1=O` (stereo not drawn) [Compound 249, 3-[3-(5,7-dihydro-6H-pyrrolo[3,4-b]pyrazin-6-ylcarbonyl)benzyl]-2-imino-5-(3-methylbutyl)-5-phenylimidazolidin-4-one]: the IC50 amounted to 18.1 nM. In the case of `N=C1NC(c2ccccc2)(c2ccccc2)C(=O)N1Cc1cccc(C(=O)N2CCN(c3ccccn3)CC2)c1` [Compound 307, 2-imino-5,5-diphenyl-3-{3-[(4-pyridin-2-ylpiperazin-1-yl)carbonyl]benzyl}-imidazolidin-4-one] it was 47.7 nM. In the case of `Cc1noc2ccc(-c3ncc4c(n3)CN(C(=O)c3cc(CN5C(=N)N[C@](CCCC(F)(F)F)(c6ccc(F)cc6)C5=O)ccc3C(F)(F)F)C4)cc12` [Compound 64, (5R)-5-(4-fluorophenyl)-2-imino-3-[3-{[2-(3-methyl-1,2-benzisoxazol-5-yl)-5,7-dihydro-6H-pyrrolo[3,4-d]pyrimidin-6-yl]carbonyl}-4-(trifluoromethyl)benzyl]-5-(4,4,4-trifluorobutyl)imidazolidin-4-one] it was 7.09 nM; in that of `CC(C)CCC1(c2ccccc2)NC(=N)N(Cc2ccc(C(F)(F)F)c(C(=O)N3CCCC3)c2)C1=O` (stereo not drawn) [Compound 170, 2-imino-5-(3-methylbutyl)-5-phenyl-3-[3-(pyrrolidin-1-ylcarbonyl)-4-(trifluoromethyl)benzyl] imidazolidin-4-one], 40.3 nM; in that of `N=C1NC(c2ccc(F)cc2)(c2ccccn2)C(=O)N1Cc1cccc(C(=O)N2Cc3[nH]nc(C(F)(F)F)c3C2)c1` (stereo not drawn) [Compound 248, 5-(4-fluorophenyl)-2-imino-5-pyridin-2-yl-3-(3-{[3-(trifluoromethyl)-4,6-dihydropyrrolo [3,4-c]pyrazol-5(1H)-yl]carbonyl}benzyl) imidazolidin-4-one], 18 nM. In the case of `N=C1N[C@](CCCC(F)(F)F)(c2ccc(F)cc2)C(=O)N1Cc1ccc(C(F)(F)F)c(C(=O)N2Cc3cnc(-c4cccc(F)c4)nc3C2)c1` [Compound 86, (5R)-5-(4-fluorophenyl)-3-[3-{[2-(3-fluorophenyl)-5,7-dihydro-6H-pyrrolo[3,4-d]pyrimidin-6-yl]carbonyl}-4-(trifluoromethyl)-benzyl]-2-imino-5-(4,4,4-trifluorobutyl)imidazolidin-4-one] it was 14.5 nM; in that of `N=C1NC(c2ccc(F)cc2)(c2cccc(Br)c2)C(=O)N1Cc1cccc(C(=O)N2Cc3[nH]nc(C(F)(F)F)c3C2)c1` (stereo not drawn) [Compound 212, 5-(3-bromophenyl)-5-(4-fluorophenyl)-2-imino-3-(3-{[3-(trifluoromethyl)-4,6-dihydropyrrolo [3,4-c]pyrazol-5(1H)-yl]carbonyl}benzyl) imidazolidin-4-one], 9.49 nM. Consider `COC(=O)Nc1ncc2c(n1)CN(C(=O)c1cc(CN3C(=N)NC(CCC(C)C)(c4ccccc4)C3=O)ccc1C(F)(F)F)C2` (stereo not drawn) [Compound 137, methyl (6-{[5-{[2-imino-4-(3-methylbutyl)-5-oxo-4-phenylimidazolidin-1-yl]methyl}-2-(trifluoromethyl)phenyl]carbonyl}-6,7-dihydro-5H-pyrrolo[3,4-d]pyrimidin-2-yl)carbamate], for which the IC50 stood at 1.88 nM. With `COC(=O)N1CCN(C(=O)c2cc(F)cc(CN3C(=N)NC(c4ccccc4)(c4ccccc4)C3=O)c2)CC1` [Compound 298, methyl 4-({3-fluoro-5-[(2-imino-5-oxo-4,4-diphenylimidazolidin-1-yl)methyl]phenyl}carbonyl) piperazine-1-carboxylate] the figure was 43.5 nM; with `CCc1nnc2n1CCN(C(=O)c1cc(CN3C(=N)N[C@](CCCC(F)(F)F)(c4ccc(F)cc4)C3=O)ccc1C(F)(F)F)C2` [Compound 65, (5R)-3-{3-[(3-ethyl-5,6-dihydro[1,2,4]triazolo[4,3-a]pyrazin-7(8H)-yl)carbonyl]-4-(trifluoromethyl)benzyl}-5-(4-fluorophenyl)-2-imino-5-(4,4,4-trifluorobutyl)imidazolidin-4-one], 7.39 nM.

`CC(C)CCC1(c2ccccc2)NC(=N)N(Cc2cccc(C(=O)N3CCNC(=O)C3)c2)C1=O` (stereo not drawn) [Compound 351, 4-[(3-{[2-imino-4-(3-methylbutyl)-5-oxo-4-phenylimidazolidin-1-yl]methyl}-phenyl)carbonyl]piperazin-2-one]: the IC50 was 86.7 nM.

A word on the IC50: it is the concentration needed to halve the response being measured.
